Experimental data published in patent US10131669B2, “Pyrazolopyrimidine compounds” (Pfizer Inc., priority 2014, dated 2018).
Where a name gives a salt, the structure may show the parent alone.

Tests used:
Type in all cases: biochemical
[1] = target: T1, Human PDE4A3 (Homo sapiens, UniProt P27815); test: PDE4A3 Scintillation Proximity Assay (SPA), inhibition of enzyme activity; conditions: geometric mean of 2-7 determinations unless otherwise indicated (b: ≥8 determinations; c: single determination), 1 μM cAMP, 30 min at 25° C., read-out: Human PDE4A FL
T1 construct: His6 (N); FLAG (C); made in house; host or cells: insect cells (baculovirus, pFastBac)
Source text: (§1) Human PDE4A3 coding sequence (amino acids 2 to 825 from the sequence with accession number NP_001104779) was cloned into the baculovirus expression vector pFastBac (Invitrogen) engineered to include an N-terminal His6 affinity tag and a c-terminal FLAG affinity tag to aid in purification. The recombinant Bacmid was isolated and used to transfect insect cells to generate a viral stock. To generate cell paste for purification, insect cells were infected with the virus stock and cells were harvested 72 hours after infection. Insect cell paste was lysed and after centrifugation, the supernatant was batch bound to Ni-NTA agarose (GE Healthcare) and eluted with 250 mM imidazole. This eluate was diluted with FLAG buffer (50 mM Tris HCL pH 7.5, 100 mM NaCl, 5% Glycerol, 1 mM TCEP with protease inhibitors) and batch bound to ant-FLAG M2 agarose (Sigma) overnight at 4° C. The agarose was packed into a column, washed with buffer and eluted with buffer containing elute using 250 ug/ml Flag-peptide. Fractions were analyzed using SDS-PAGE Coomassie blue staining and pooled based on purity. Pooled fractions were chromatographed on a S200 120 ml column (GE Healthcare) in 50 mM Tris HCL pH 7.5, 150 mM NaCl, 10% Glycerol, 2 mM TCEP with protease inhibitors. PDE4A3 fractions were analyzed by SDS-PAGE Coomassie blue staining, pooled based on purity, dialyzed against 50 mM Tris HCL pH 7.5, 100 mM NaCl, 20% Glycerol, 2 mM TCEP, frozen and stored at −80° C.
(§2) The PDE4A3, PDE4B1, PDE4C1 and PDE4D3 assays use the Scintillation Proximity Assay (SPA) technology to measure the inhibition of human recombinant […], PDE4C1, and PDE4D3 enzyme activity by compounds in vitro. The PDE4A1, PDE4B3, PDE4C1, and PDE4D3 assays are run in parallel using identical parameters, except for the concentration of enzyme (80 pM PDE4A3, 40 pM PDE4B3, 40 pM PDE4C1 and 10 pM PDE4D). The assays are performed in a 384-well format with 50 uL assay buffer (50 mM TRIS pH7.5; 1.3 mM MgCl2; 0.01% Brij) containing enough PDE4A3, PDE4B1, PDE4C1, and PDE4D to convert ˜20% of substrate (1 μM cAMP consisting of 20 nM 3H-cAMP+[…] cold cAMP) and a range of inhibitors. Reactions are incubated for 30 min at 25° C. The addition of 20 uL of 8 mg/ml yitrium silicate SPA beads (Perkin Elmer) stops the reaction. The plates are sealed (TopSeal, Perkin Elmer) and the beads are allowed to settle for 8 hrs, after which they are read on the Trilux Microbeta overnight.

[2] = target: T2, Human PDE4B1 (Homo sapiens, UniProt Q07343, S133E/S654A/S659A/S661A); test: PDE4B1 Scintillation Proximity Assay (SPA), inhibition of enzyme activity; conditions: geometric mean of 2-7 determinations unless otherwise indicated (b: ≥8 determinations; c: single determination); 1 μM cAMP, 30 min at 25° C.; read-out: Human PDE4B FL; IC50
T2 construct: His6 (N); thrombin cleavage site (N); made in house; host or cells: insect cells (baculovirus, pFastBac)
Method: The recombinant Bacmid was isolated and used to transfect insect cells to generate a viral stock. To generate cell paste for purification, insect cells were infected with the virus stock and cells were harvested 72 hours after infection as described in Seeger, T. F. et al., Brain Research 985 (2003) 113-126. Insect cell paste was lysed and after centrifugation, the supernatant was chromatographed on Ni-NTA agarose (Qiagen) as described in Seeger, T. F. et al., Brain Research 985 (2003) 113-126. Ni-NTA agarose eluting fractions containing PDE4 were pooled, diluted with Q buffer A (20 mM Tris HCl pH 8, 5% glycerol, 1 mM TCEP) to reduce NaCl to ˜100 mM and loaded on a Source 15Q (GE Healthcare) column. After washing with Q buffer A/10% buffer B to baseline, PDE4D was eluted with a gradient from 10% to 60% of Buffer B (20 mM Tris HCl pH 8, 1 M NaCl, 5% glycerol, 1 mM TCEP). PDE4D fractions were analyzed by SDS-PAGE Coomassie blue staining, pooled based on purity, frozen and stored at −80° C.
as §2

[3] = target: T3, Human PDE4C1 (Homo sapiens, UniProt Q08493); test: PDE4C1 Scintillation Proximity Assay (SPA), inhibition of enzyme activity; conditions: geometric mean of 2-7 determinations unless otherwise indicated (b: ≥8 determinations; c: single determination), 1 μM cAMP, 30 min at 25° C., read-out: Human PDE4C FL
T3 construct: His6 (N); FLAG (C); made in house; host or cells: insect cells (baculovirus, pFastBac)
Method: as §1, with “The” for “Human PDE4A3 coding sequence (amino acids 2 to 825 from the sequence with accession number NP_001104779) was cloned into the baculovirus expression vector pFastBac (Invitrogen) engineered to include an N-terminal His6 affinity tag and a c-terminal FLAG affinity tag to aid in purification. The”, “PDE4C1” for “PDE4A3”
as §2

[4] = target: T4, human PDE4D3 (Homo sapiens, UniProt Q08499); test: PDE4D3 Scintillation Proximity Assay (SPA), inhibition of enzyme activity; conditions: geometric mean of 2-7 determinations unless otherwise indicated (b: ≥8 determinations; c: single determination); 1 μM cAMP, 30 min at 25° C.; read-out: Human PDE4D FL; IC50
T4 construct: His6 (C); made in house; host or cells: insect cells (baculovirus, pFastBac)
Method: The recombinant Bacmid was isolated and used to transfect insect cells to generate a viral stock. To generate cell paste for purification, insect cells were infected and cells were harvested 72 hours after infection. Insect cell paste was lysed and after centrifugation, the supernatant was chromatographed on Ni-NTA agarose (Qiagen) as described in Seeger, T. F. et al., Brain Research 985 (2003) 113-126. Ni-NTA agarose eluting fractions containing PDE4 were pooled, diluted with Q Buffer A (50 mM Tris HCl pH 8, 4% glycerol, 100 mM NaCl, 1 mM TCEP, Protease inhibitors EDTA-free (Roche)) to reduce NaCl to ˜200 mM, and loaded on a Q Sepharose (GE Healthcare) column. After washing with Q buffer A to baseline, PDE4D was eluted with a gradient from 10% to 60% of Buffer B (50 mM Tris HCl pH 8, 1 M NaCl, 4% glycerol, 1 mM TCEP). PDE4D fractions were analyzed by SDS-PAGE Coomassie blue staining, pooled based on purity, frozen and stored at −80° C.
as §2

T1 sequence (P27815 2-825 isoform P27815-6): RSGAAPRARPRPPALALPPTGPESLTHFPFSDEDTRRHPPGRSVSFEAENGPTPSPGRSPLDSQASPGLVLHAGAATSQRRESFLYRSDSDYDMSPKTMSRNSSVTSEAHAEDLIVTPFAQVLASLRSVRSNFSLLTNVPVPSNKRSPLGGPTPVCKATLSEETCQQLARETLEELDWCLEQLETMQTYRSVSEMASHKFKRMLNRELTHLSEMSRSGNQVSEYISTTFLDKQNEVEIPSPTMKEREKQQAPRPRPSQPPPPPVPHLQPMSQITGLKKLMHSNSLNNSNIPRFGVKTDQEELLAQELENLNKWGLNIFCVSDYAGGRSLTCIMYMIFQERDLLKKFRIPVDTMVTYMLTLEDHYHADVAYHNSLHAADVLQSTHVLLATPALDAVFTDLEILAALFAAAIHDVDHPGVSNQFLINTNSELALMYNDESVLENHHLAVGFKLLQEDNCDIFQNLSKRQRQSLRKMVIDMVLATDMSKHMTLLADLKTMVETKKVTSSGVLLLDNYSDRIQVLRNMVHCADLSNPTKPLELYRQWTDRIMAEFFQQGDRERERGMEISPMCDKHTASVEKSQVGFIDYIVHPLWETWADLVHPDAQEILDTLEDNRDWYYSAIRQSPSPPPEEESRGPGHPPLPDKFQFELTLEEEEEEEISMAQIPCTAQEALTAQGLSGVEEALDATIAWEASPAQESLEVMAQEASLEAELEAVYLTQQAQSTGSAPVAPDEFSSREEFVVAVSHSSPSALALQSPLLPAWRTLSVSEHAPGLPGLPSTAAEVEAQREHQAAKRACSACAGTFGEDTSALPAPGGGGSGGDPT
T2 sequence (Q07343 122-736 S133E/S654A/S659A/S661A): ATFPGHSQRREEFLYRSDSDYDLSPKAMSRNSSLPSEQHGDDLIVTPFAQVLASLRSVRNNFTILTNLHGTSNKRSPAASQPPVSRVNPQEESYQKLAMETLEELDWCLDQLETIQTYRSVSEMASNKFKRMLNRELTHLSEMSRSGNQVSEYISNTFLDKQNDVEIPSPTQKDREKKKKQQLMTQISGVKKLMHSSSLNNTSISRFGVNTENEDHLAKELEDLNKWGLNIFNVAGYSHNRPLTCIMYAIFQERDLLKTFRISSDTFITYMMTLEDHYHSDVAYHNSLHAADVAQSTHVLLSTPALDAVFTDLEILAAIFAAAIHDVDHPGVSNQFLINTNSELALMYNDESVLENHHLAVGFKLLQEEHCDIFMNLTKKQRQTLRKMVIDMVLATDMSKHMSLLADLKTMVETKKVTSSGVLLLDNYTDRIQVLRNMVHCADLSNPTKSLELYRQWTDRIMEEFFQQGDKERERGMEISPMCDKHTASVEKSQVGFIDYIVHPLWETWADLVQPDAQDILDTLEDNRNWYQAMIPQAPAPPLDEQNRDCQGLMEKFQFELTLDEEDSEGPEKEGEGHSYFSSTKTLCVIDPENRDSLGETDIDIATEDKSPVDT
T3 sequence (Q08493 2-712): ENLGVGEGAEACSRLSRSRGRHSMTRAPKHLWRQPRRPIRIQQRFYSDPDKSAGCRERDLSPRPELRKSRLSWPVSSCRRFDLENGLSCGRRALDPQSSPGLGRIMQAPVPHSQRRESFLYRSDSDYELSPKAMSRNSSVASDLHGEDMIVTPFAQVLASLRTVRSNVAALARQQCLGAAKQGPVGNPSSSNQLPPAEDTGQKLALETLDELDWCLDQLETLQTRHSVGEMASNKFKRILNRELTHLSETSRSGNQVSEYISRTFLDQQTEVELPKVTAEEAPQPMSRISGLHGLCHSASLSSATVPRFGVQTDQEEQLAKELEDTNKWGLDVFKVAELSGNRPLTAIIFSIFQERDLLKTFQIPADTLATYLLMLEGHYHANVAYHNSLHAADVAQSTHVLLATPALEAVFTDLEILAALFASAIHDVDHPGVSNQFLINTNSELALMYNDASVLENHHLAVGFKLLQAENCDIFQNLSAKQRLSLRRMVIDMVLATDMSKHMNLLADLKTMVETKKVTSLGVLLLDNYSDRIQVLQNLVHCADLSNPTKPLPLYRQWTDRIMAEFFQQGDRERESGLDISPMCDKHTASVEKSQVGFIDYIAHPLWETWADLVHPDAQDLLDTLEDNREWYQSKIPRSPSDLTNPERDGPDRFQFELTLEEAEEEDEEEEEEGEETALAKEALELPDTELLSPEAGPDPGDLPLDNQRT
T4 sequence (Q08499 186-808): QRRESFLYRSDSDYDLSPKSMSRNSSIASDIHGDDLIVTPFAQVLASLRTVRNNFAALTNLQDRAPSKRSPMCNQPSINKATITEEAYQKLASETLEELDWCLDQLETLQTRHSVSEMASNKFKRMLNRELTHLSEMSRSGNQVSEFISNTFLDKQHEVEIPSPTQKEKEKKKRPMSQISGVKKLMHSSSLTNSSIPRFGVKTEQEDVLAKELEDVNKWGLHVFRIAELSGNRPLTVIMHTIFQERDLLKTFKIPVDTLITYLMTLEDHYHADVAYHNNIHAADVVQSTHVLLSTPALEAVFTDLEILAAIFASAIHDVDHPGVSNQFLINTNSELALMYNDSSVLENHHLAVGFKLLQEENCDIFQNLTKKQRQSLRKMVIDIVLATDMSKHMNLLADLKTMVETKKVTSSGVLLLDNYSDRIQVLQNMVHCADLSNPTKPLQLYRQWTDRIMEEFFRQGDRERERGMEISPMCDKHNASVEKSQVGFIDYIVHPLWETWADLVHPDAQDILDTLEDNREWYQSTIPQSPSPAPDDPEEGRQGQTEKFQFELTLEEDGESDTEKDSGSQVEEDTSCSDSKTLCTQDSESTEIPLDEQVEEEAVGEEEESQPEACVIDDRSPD

Compound | IC50 [1] | IC50 [2] | IC50 [3] | IC50 [4]
O=C(NC1CC1)c1nn2cccnc2c1-c1ccc(Cl)cc1F [Example 14, 3-(4-chloro-2-fluorophenyl)-N-cyclopropylpyrazolo[1,5-a]pyrimidine-2-carboxamide] | 0.0518 µM | 0.179 µM | 0.0833 µM | > 16.7 µM
CCNC(=O)c1nn2cccnc2c1-c1cc(F)c(Cl)cc1C [Example 17, 3-(4-chloro-5-fluoro-2-methylphenyl)-N-ethylpyrazolo[1,5-a]pyrimidine-2-carboxamide] | 0.00846 µM | 0.021 µM | 0.0798 µM | 0.967 µM
O=C(NC1(C(F)(F)F)CC1)c1nn2cccnc2c1-c1ccc(Cl)cc1 [Example 36, 3-(4-chlorophenyl)-N-[1-(trifluoromethyl)cyclopropyl]pyrazolo[1,5-a]pyrimidine-2-carboxamide, hydrochloride salt] | 0.0672 µM | 0.452 µM | 0.452 µM | > 25.2 µM
N#Cc1ccc(-c2c(C(=O)N3CCC3)nn3cccnc23)cc1F [Example 15, 4-[2-(azetidin-1-ylcarbonyl)pyrazolo[1,5-a]pyrimidin-3-yl]-2-fluorobenzonitrile] | 0.109 µM | 0.0517 µM | 0.0527 µM | 6.63 µM
Cc1cc(Cl)ccc1-c1c(C(=O)NC2CC2)nn2cccnc12 [Example 6, 3-(4-Chloro-2-methylphenyl)-N-cyclopropylpyrazolo[1,5-a]pyrimidine-2-carboxamide] | 0.0287 µM | 0.0552 µM | 0.066 µM | > 10.4 µM
CCNC(=O)c1nn2cccnc2c1-c1cc(F)c(C#N)cc1C [Example 16, 3-(4-cyano-5-fluoro-2-methylphenyl)-N-ethylpyrazolo[1,5-a]pyrimidine-2-carboxamide] | 0.0159 µM | 0.0543 µM | 0.0798 µM | 2.51 µM
CC1CC1NC(=O)c1nn2cccnc2c1-c1ccc(Cl)cc1 (stereo not shown) [Example 34, 3-(4-chlorophenyl)-N-(2-methylcyclopropyl)pyrazolo[1,5-a]pyrimidine-2-carboxamide] | 0.12 µM | 0.138 µM | 0.449 µM | > 12.3 µM

Continued, values first:

IC50 [1] | IC50 [2] | IC50 [3] | IC50 [4] | Compound
0.00875 µM | 0.0305 µM | 0.0285 µM | 1.06 µM | Cc1cc(Cl)ccc1-c1c(C(=O)NC2CC2)nn2cc(F)cnc12 [Example 55, 3-(4-chloro-2-methylphenyl)-N-cyclopropyl-6-fluoropyrazolo[1,5-a]pyrimidine-2-carboxamide]
0.00392 µM | 0.0223 µM | 0.0194 µM | 0.0784 µM | O=C(NC1CC1)c1nn2cc(F)cnc2c1-c1ccnc(OC(F)F)c1 [Example 56, N-cyclopropyl-3-[2-(difluoromethoxy)pyridin-4-yl]-6-fluoropyrazolo[1,5-a]pyrimidine-2-carboxamide]
0.146 µM | 0.221 µM | 0.178 µM | > 14.4 µM | O=C(NC1CC1)c1nn2cccnc2c1-c1ccc2ncoc2c1 [Example 43, 3-(1,3-benzoxazol-6-yl)-N-cyclopropylpyrazolo[1,5-a]pyrimidine-2-carboxamide]
0.0129 µM | 0.0245 µM | 0.059 µM | 0.469 µM | Cc1cc(Cl)c(F)cc1-c1c(C(=O)NC(C)C)nn2cccnc12 [Example 54, 3-(4-chloro-5-fluoro-2-methylphenyl)-N-(propan-2-yl)pyrazolo[1,5-a]pyrimidine-2-carboxamide]
0.00402 µM | 0.0132 µM | 0.0095 µM | 0.459 µM | Cc1ccc(-c2c(C(=O)NC3CC3)nn3cc(F)cnc23)cc1F [Example 63, N-cyclopropyl-6-fluoro-3-(3-fluoro-4-methylphenyl)pyrazolo[1,5-a]pyrimidine-2-carboxamide]
0.00331 µM | 0.0168 µM | 0.0329 µM | 0.261 µM | N#Cc1ccc(-c2c(C(=O)N3CCC3)nn3cc(F)cnc23)cc1F [Example 68, 4-[2-(azetidin-1-ylcarbonyl)-6-fluoropyrazolo[1,5-a]pyrimidin-3-yl]-2-fluorobenzonitrile]
0.00337 µM | 0.0173 µM | 0.0361 µM | 0.0929 µM | Cc1cc(C#N)c(F)cc1-c1c(C(=O)N2CCC2)nn2cccnc12 [Example 69, 4-[2-(azetidin-1-ylcarbonyl)pyrazolo[1,5-a]pyrimidin-3-yl]-2-fluoro-5-methylbenzonitrile]
0.745 µM | 0.377 µM | 0.292 µM | > 28 µM | N#Cc1ccc(-c2c(C(=O)N3CCC3)nn3cccnc23)c(F)c1 [Example 75, 4-[2-(azetidin-1-ylcarbonyl)pyrazolo[1,5-a]pyrimidin-3-yl]-3-fluorobenzonitrile]
0.002 µM | 0.008 µM | 0.02 µM | 0.098 µM | Cc1cc(Cl)c(F)cc1-c1c(C(=O)N2CCC2)nn2cccnc12 [Example 61, azetidin-1-yl[3-(4-chloro-5-fluoro-2-methylphenyl)pyrazolo[1,5-a]pyrimidin-2-yl]methanone]
